Reference: ChEMBL document CHEMBL4304782, “Antioxidant, Anti-inflammatory, and Neuroprotective Effects of Novel Vinyl Sulfonate Compounds as Nrf2 Activator” (ACS Med Chem Lett, 2019)
pEC50: −log10 of the molar value.

Target: T1, Nuclear factor erythroid 2-related factor 2 (Homo sapiens, UniProt Q16236)
T1 sequence (Q16236 whole entry): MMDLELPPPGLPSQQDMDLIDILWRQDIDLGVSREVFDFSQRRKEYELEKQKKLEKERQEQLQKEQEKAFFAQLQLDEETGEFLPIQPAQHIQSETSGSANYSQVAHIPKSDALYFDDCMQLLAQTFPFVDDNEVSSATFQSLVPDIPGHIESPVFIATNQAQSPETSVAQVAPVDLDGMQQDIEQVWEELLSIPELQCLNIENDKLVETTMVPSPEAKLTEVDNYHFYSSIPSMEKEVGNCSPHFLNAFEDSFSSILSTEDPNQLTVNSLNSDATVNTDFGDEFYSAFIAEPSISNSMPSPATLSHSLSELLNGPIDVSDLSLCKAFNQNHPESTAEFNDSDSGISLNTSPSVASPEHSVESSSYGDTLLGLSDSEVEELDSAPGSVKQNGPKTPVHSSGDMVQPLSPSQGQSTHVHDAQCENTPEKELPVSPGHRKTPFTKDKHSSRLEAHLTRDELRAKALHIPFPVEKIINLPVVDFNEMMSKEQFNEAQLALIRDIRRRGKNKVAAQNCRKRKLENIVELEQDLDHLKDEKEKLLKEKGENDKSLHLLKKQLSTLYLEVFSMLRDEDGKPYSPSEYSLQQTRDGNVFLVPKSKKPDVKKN
Test: Activation of ED-tagged Nrf2 in human U2OS cells co-expressing Keap1 assessed as induction of NRF2 translocation to nucleus after 6 hrs by beta-galactosidase based chemiluminescent assay
Format: cell-based

Row | Structure (SMILES) | pEC50
1 | COc1ccc(OS(=O)(=O)/C=C/c2ccccc2)cc1 | 5.83
2 | O=S(=O)(/C=C/c1ccccc1)Nc1ccccc1 | < 5.00
3 | COc1cccc(NS(=O)(=O)/C=C/c2ccccc2Cl)c1 | < 5.00
4 | COc1ccccc1NS(=O)(=O)/C=C/c1ccccc1Cl | 5.20

The next molecules have a higher pEC50 than those just listed; values first:

Row | pEC50 | Structure (SMILES)
5 | 6.02 | COc1ccc(OS(=O)(=O)/C=C/c2cccc(Cl)c2)cc1
6 | 6.03 | COc1cccc(OS(=O)(=O)/C=C/c2cccc(Cl)c2)c1
7 | 6.63 | COc1ccc(OS(=O)(=O)/C=C/c2ccccc2Cl)cc1
8 | 6.78 | COc1cccc(OS(=O)(=O)/C=C/c2ccccc2Cl)c1
